Experimental data reported in patent publication US20260026504A1, “COMPOUND […] STRUCTURE, APPLICATION, AND INSECTICIDE” (Anhui Shengfeng Biochemical Co., Ltd, priority 2022, published 2026).
Read-outs that look alike come from different tables or passages of the source.

Experiments:
[1] = tested on: rice leaf rollers (Cnaphalocrocis medinalis) fourth instar larvae; assay: Toxicity to rice leaf roller fourth instar larvae by the leaf-dipping method; assay type: in vivo; conditions: for mortality at 5 ppm: Cnaphalocrocis medinalis, foliar, corrected mortality grade, 48 h, rice leaf dip
Protocol: The toxicity activity of part of the compounds on the fourth instar larvae of the rice leaf rollers (Cnaphalocrocis medinalis) is determined by the leafdipping method.
The test agents of the compounds in Table 2 were weighed out accurately with an electronic analytical balance, and the original drug was dissolved completely in dimethylsulfoxide to 10000 ppm solution and then diluted with 0.1% aqueous solution of Triton to 5 ppm solution. And (4) selecting rice plants which are planted in a laboratory and are not contacted with the liquid medicine, and cutting leaves of the rice plants to about 8 cm. Soaking the leaves in the prepared liquid medicine for 15 seconds, taking out and drying, wrapping the roots with absorbent cotton, and putting the wrapped roots into 9 cm culture dishes, wherein 3-5 rice leaves are placed in each culture dish. The water bamboo sections used as the feed for larvae are peeled off gently, and the four-instar larvae of the same standard are placed in culture dishes with 10 heads per dish and 4 repetitions per concentration for a total of 40 heads. After the inoculation, the culture dish is placed in a constant temperature culture room with the temperature of 26±1° C. and the illumination period of 16 (D): 8 (L) h, and the number of dead and live larvae is investigated after 48 h. A blank and a control of compound K1 and compound K2 were also provided.
The mortality was calculated according to the following formula 1, then the corrected mortality was calculated according to the following formula 2, and finally the rating criteria shown in table 2 were combined for ranking according to the corrected mortality value, and the specific results are shown in table 5.
(§1) mortality %=(number of dead insects/total number of insects)×100% Equation 1;
(§2) corrected mortality %=[(treatment-control mortality)/(1-control mortality)]×100% Equation 2.

[2] = tested on: diamondback moth (Plutella xylostella) second instar larvae; assay: Toxicity to diamondback moth larvae by the leaf-dipping method; assay type: in vivo; conditions: for mortality at 0.25 ppm / mortality at 1 ppm: Plutella xylostella, in Brassica oleracea, foliar
Protocol: Determining the toxicity activity of part of compounds on diamondback moth (Plutella xylostella) instar larvae by the leafdipping method.
The test agents of the compounds in Table 2 were weighed out accurately with an electronic analytical balance, and the original drug was dissolved in a 10000 ppm solution with dimethyl sulfoxide as the solvent and then diluted with 0.1% of Triton solution to 1 ppm and 0.25 ppm solutions. Taking the cabbage not contacted with the liquid medicine, and cutting the leaves into 6 cm-diameter circular leaves. Soaking the leaves in the prepared liquid medicine for 15 seconds, taking out and drying, and placing the leaves into 6 cm culture dishes, wherein 1 cabbage leaf is placed in each culture dish. The same standard second instar larvae were placed in petri dishes with 10 heads per dish and 4 replicates per concentration for a total of 40 heads. After inoculation, the culture dish is placed in a constant-temperature culture chamber with the temperature of 25±1° C. and the illumination period of 16 (D) to 8 (L) h, and the number of dead and live larvae is investigated after 48 h and 72 h. A blank and a control of compound K1 and compound K2 were also provided.
The mortality is calculated according to the following formula 1, then the corrected mortality is calculated according to the formula 2, and finally the classification is carried out according to the corrected mortality value and the rating standard shown in the table 2, and the specific results are shown in the tables 3 and 4.
as §1, §2

[3] = 48 h, corrected mortality grade, cabbage leaf dip
[4] = 48 h, corrected mortality grade, 1 ppm, 48 h, cabbage leaf dip, read-out: mortality (1 ppm) 48 h
[5] = 72 h, corrected mortality grade, 1 ppm, 72 h, cabbage leaf dip, read-out: mortality (1 ppm) 72 h

| SMILES | mortality at 1 ppm [2, 4] | mortality at 1 ppm [2, 5] | other results |
| --- | --- | --- | --- |
| Cc1cc(C2=NOC(c3cc(Cl)c(F)c(Cl)c3)(C(F)(F)F)C2)ccc1C(=O)Nc1cnn(C(C)C)c1 (stereo not drawn) [Compound 127] | 100% | 100% | mortality at 5 ppm [1]: 100%; lethality to Cnaphalocrocis medinalis ([1]; concentration of 5 ppm): 100%; mortality at 0.25 ppm [2, 3]: 100%; lethality to Plutella xylostella ([2]; concentration of 0.25 ppm): 100% |
| Cc1cc(C2=NOC(c3cc(Cl)c(F)c(Cl)c3)(C(F)(F)F)C2)ccc1C(=O)Nc1cnn(C(=O)N(C)C)c1 (stereo not drawn) [Compound 149] | 100% | 100% | – |
| CCN(CC)C(=O)n1cc(NC(=O)c2ccc(C3=NOC(c4cc(Cl)c(F)c(Cl)c4)(C(F)(F)F)C3)cc2C)cn1 (stereo not drawn) [Compound 150] | 80 to 90% | 100% | – |
| Cc1cc(C2=NOC(c3cc(Cl)c(F)c(Cl)c3)(C(F)(F)F)C2)ccc1C(=O)Nc1cnn(S(C)(=O)=O)c1 (stereo not drawn) [Compound 151] | – | 70 to 80% | – |
| CCCS(=O)(=O)n1cc(NC(=O)c2ccc(C3=NOC(c4cc(Cl)c(F)c(Cl)c4)(C(F)(F)F)C3)cc2C)cn1 (stereo not drawn) [Compound 153] | 70 to 80% | 90 to 100% | – |
| Cc1cc(C2=NOC(c3cc(Cl)c(F)c(Cl)c3)(C(F)(F)F)C2)ccc1C(=O)Nc1cnn(S(=O)(=O)C(C)C)c1 (stereo not drawn) [Compound 154] | 80 to 90% | 100% | – |
| Cc1cc(C2=NOC(c3cc(Cl)c(F)c(Cl)c3)(C(F)(F)F)C2)ccc1C(=O)Nc1cnn(S(=O)(=O)c2ccccc2)c1 (stereo not drawn) [Compound 155] | – | 50 to 70% | – |
| Cc1cc(C2=NOC(c3cc(Cl)c(F)c(Cl)c3)(C(F)(F)F)C2)ccc1C(=O)Nc1cnn(S(=O)(=O)C2CCCCC2)c1 (stereo not drawn) [Compound 157] | 90 to 100% | 100% | – |
| Cc1cc(C2=NOC(c3cc(Cl)c(F)c(Cl)c3)(C(F)(F)F)C2)ccc1C(=O)Nc1c(C)n[nH]c1C (stereo not drawn) [Compound 158] | 50 to 70% | 90 to 100% | – |
| Cc1cc(C2=NOC(c3cc(Cl)c(F)c(Cl)c3)(C(F)(F)F)C2)ccc1C(=O)Nc1c(C)nn(C)c1C (stereo not drawn) [Compound 159] | – | – | mortality (1 ppm) 72 h ([2]; corrected mortality grade, 1 ppm, 72 h, cabbage leaf dip): B (90% to less than 100%) |
| Cc1cc(C2=NOC(c3cc(Cl)c(F)c(Cl)c3)(C(F)(F)F)C2)ccc1C(=O)Nc1c(C)nn(C)c1C (stereo not drawn) [Compound 160] | 50 to 70% | 70 to 80% | – |
| CCCn1nc(C)c(NC(=O)c2ccc(C3=NOC(c4cc(Cl)c(F)c(Cl)c4)(C(F)(F)F)C3)cc2C)c1C (stereo not drawn) [Compound 161] | – | 90 to 100% | – |
| Cc1cc(C2=NOC(c3cc(Cl)c(F)c(Cl)c3)(C(F)(F)F)C2)ccc1C(=O)Nc1c(C)nn(C(C)C)c1C (stereo not drawn) [Compound 162] | 50 to 70% | 100% | – |
| CC(=O)n1nc(C)c(NC(=O)c2ccc(C3=NOC(c4cc(Cl)c(F)c(Cl)c4)(C(F)(F)F)C3)cc2C)c1C (stereo not drawn) [Compound 168] | – | 90 to 100% | – |
| CCC(=O)n1nc(C)c(NC(=O)c2ccc(C3=NOC(c4cc(Cl)c(F)c(Cl)c4)(C(F)(F)F)C3)cc2C)c1C (stereo not drawn) [Compound 169] | – | 80 to 90% | – |
| CCCC(=O)n1nc(C)c(NC(=O)c2ccc(C3=NOC(c4cc(Cl)c(F)c(Cl)c4)(C(F)(F)F)C3)cc2C)c1C (stereo not drawn) [Compound 170] | – | 80 to 90% | – |
| Cc1cc(C2=NOC(c3cc(Cl)c(F)c(Cl)c3)(C(F)(F)F)C2)ccc1C(=O)Nc1c(C)nn(C(=O)C(C)C)c1C (stereo not drawn) [Compound 171] | – | 80 to 90% | – |
| Cc1cc(C2=NOC(c3cc(Cl)c(F)c(Cl)c3)(C(F)(F)F)C2)ccc1C(=O)Nc1c(C)nn(C(=O)C2CCC2)c1C (stereo not drawn) [Compound 174] | – | 70 to 80% | – |
| Cc1cc(C2=NOC(c3cc(Cl)c(F)c(Cl)c3)(C(F)(F)F)C2)ccc1C(=O)Nc1c(C)nn(C(=O)N(C)C)c1C (stereo not drawn) [Compound 177] | – | 80 to 90% | – |
| Cc1cc(C2=NOC(c3cc(Cl)cc(Cl)c3)(C(F)(F)F)C2)ccc1C(=O)Nc1ccn(C)n1 (stereo not drawn) [Compound K1, reference compound] | < 50% | < 50% | mortality at 5 ppm [1]: < 50%; mortality at 0.25 ppm [2, 3]: < 50% |
